According to ChEMBL document CHEMBL4651402, “Screening of ~5500 FDA-approved drugs and clinical candidates for anti-SARS-CoV-2 activity” (2021):

Test system: SARS-CoV-2
Assay: microbe, parasite or virus in culture
Conditions: Severe acute respiratory syndrome coronavirus 2, Vero C1008, 48 h

SMILES	IC50	IC50 (read-out: pIC50 (converted))
C/C=C/C/C=C/CCC(=O)[C@H]1O[C@H]1C(N)=O [CERULENIN]	> 20 µM	> 20 µM
CNC(=O)COc1ccccc1OCC(O)CNC(C)(C)C (configuration not stated) [CETAMOLOL]	> 20 µM	> 20 µM
CC[C@H]1OC(=O)[C@H](C)C(=O)[C@H](C)[C@@H](O[C@@H]2O[C@H](C)C[C@H](N(C)C)[C@H]2O)[C@](C)(OCC=Cc2cnc3ccccc3c2)C[C@@H](C)C(=O)[C@H](C)[C@H]2NC(=O)O[C@@]21C [CETHROMYCIN]	> 20 µM	> 20 µM
O=C(O)COCCN1CCN(C(c2ccccc2)c2ccc(Cl)cc2)CC1 (configuration not stated) [CETIRIZINE]	> 20 µM	> 20 µM
CCCCCCCCCCCCCCCC[N+](C)(C)C [CETRIMONIUM]	> 20 µM	> 20 µM
Cc1c(N)cccc1Cn1ccc(OCCc2cccs2)cc1=O [CG-400549]	> 20 µM	> 20 µM
CN1Cc2c(ccc3c2OCO3)C2C(O)Cc3cc4c(cc3C21)OCO4 (stereo not drawn) [CHELIDONINE (+)]	> 20 µM	> 20 µM
COc1cc(-c2ccc(/N=N/c3ccc4c(S(=O)(=O)O)cc(S(=O)(=O)O)c(N)c4c3O)c(OC)c2)ccc1/N=N/c1ccc2c(S(=O)(=O)O)cc(S(=O)(=O)O)c(N)c2c1O [CHICAGO SKY BLUE]	> 20 µM	> 20 µM
OC[C@@H](O)[C@H]1O[C@@H]2O[C@H](C(Cl)(Cl)Cl)O[C@@H]2[C@H]1O [CHLORALOSE]	> 20 µM	> 20 µM
O=C(O)CCCc1ccc(N(CCCl)CCCl)cc1 [CHLORAMBUCIL]	> 20 µM	> 20 µM
O=C1C(Cl)=C(Cl)C(=O)C(Cl)=C1Cl [CHLORANIL]	> 20 µM	> 20 µM
CN1CCN(C(c2ccccc2)c2ccc(Cl)cc2)CC1 (configuration not stated) [CHLORCYCLIZINE]	> 20 µM	> 20 µM
CCCCC(CC)C1NC(=O)N(SC(Cl)(Cl)Cl)C1=O (configuration not stated) [CHLORDANTOIN]	> 20 µM	> 20 µM
CNC1=Nc2ccc(Cl)cc2C(c2ccccc2)=[N+]([O-])C1 [CHLORDIAZEPOXIDE]	> 20 µM	> 20 µM
N=C(NCCCCCCNC(=N)NC(=N)Nc1ccc(Cl)cc1)NC(=N)Nc1ccc(Cl)cc1 [CHLORHEXIDINE]	> 20 µM	> 20 µM
Oc1ccc(Cl)c2c1CCC2 [CHLORINDANOL]	> 20 µM	> 20 µM
C[N+](C)(C)CC[N+]1(C)Cc2c(Cl)c(Cl)c(Cl)c(Cl)c2C1 [CHLORISONDAMINE]	> 20 µM	> 20 µM
CC(=O)O[C@]1(C(C)=O)CC[C@H]2[C@@H]3C=C(Cl)C4=CC(=O)CC[C@]4(C)[C@H]3CC[C@@]21C [CHLORMADINONE ACETATE]	> 20 µM	> 20 µM
CN1C(=O)CCS(=O)(=O)C1c1ccc(Cl)cc1 (configuration not stated) [CHLORMEZANONE]	> 20 µM	> 20 µM
Cc1nc2ccccc2n1Cc1ccc(Cl)cc1 [CHLORMIDAZOLE]	> 20 µM	> 20 µM
Cc1cc(O)ccc1Cl [CHLOROCRESOL]	> 20 µM	> 20 µM
O=C(/C=C/c1ccc(O)c(O)c1)O[C@@H]1C[C@](O)(C(=O)O)C[C@@H](O)[C@H]1O [CHLOROGENIC ACID]	> 20 µM	> 20 µM
Clc1cccc(N2CCNCC2)c1 [CHLOROPHENYLPIPERAZINE]	> 20 µM	> 20 µM
CN(C)CCN(Cc1ccc(Cl)cc1)c1ccccn1 [CHLOROPYRAMINE]	> 20 µM	> 20 µM
N#Cc1c(Cl)c(Cl)c(Cl)c(C#N)c1Cl [CHLOROTHALONIL]	> 20 µM	> 20 µM
CN(C)CCN(Cc1ccc(Cl)s1)c1ccccn1 [CHLOROTHEN]	> 20 µM	> 20 µM

SMILES	IC50	IC50 (read-out: pIC50 (converted))
NS(=O)(=O)c1cc2c(cc1Cl)N=CNS2(=O)=O [CHLOROTHIAZIDE]	> 20 µM	> 20 µM
COc1ccc(C(Cl)=C(c2ccc(OC)cc2)c2ccc(OC)cc2)cc1 [CHLOROTRIANISENE]	> 20 µM	> 20 µM
Oc1c(Cl)cc(Cl)c2cccnc12 [CHLOROXINE]	> 20 µM	> 20 µM
Cc1cc(O)cc(C)c1Cl [CHLOROXYLENOL]	> 20 µM	> 20 µM
NC(=O)OCC(O)COc1ccc(Cl)cc1 (configuration not stated) [CHLORPHENESIN CARBAMATE]	> 20 µM	> 20 µM
CN(C)CCC(c1ccc(Cl)cc1)c1ccccn1 (configuration not stated) [CHLORPHENIRAMINE]	> 20 µM	> 20 µM
CC(C)(N)Cc1ccc(Cl)cc1 [CHLORPHENTERMINE]	> 20 µM	> 20 µM
CN(C)CCCN1c2ccccc2Sc2ccc(Cl)cc21 [CHLORPROMAZINE]	> 20 µM	> 20 µM
CCCNC(=O)NS(=O)(=O)c1ccc(Cl)cc1 [CHLORPROPAMIDE]	> 20 µM	> 20 µM
Cc1ccc2c(Cl)cc(Cl)c(O)c2n1 [CHLORQUINALDOL]	> 20 µM	> 20 µM
NS(=O)(=O)c1cc(C2(O)NC(=O)c3ccccc32)ccc1Cl (configuration not stated) [CHLORTHALIDONE]	> 20 µM	> 20 µM
O=C(O)c1cc(=O)c2ccccc2o1 [CHROMOCARB]	> 20 µM	> 20 µM
CCOC(=O)COc1ccc2c(C)c(CCN(CC)CC)c(=O)oc2c1 [CHROMONAR]	> 20 µM	> 20 µM
CC(C)=CC1C(CO)C1(C)C (configuration not stated) [CHRYSANTHEMYL ALCOHOL]	> 20 µM	> 20 µM
COc1cc(OC)c2c(=O)cc(-c3ccccc3)oc2c1 [CHRYSIN DIMETHYL ETHER]	> 20 µM	> 20 µM
O=c1cc(-c2ccccc2)oc2cc(O)cc(O)c12 [CHRYSIN]	> 20 µM	> 20 µM
N#CN=C(NCCCCCCOc1ccc(Cl)cc1)Nc1ccncc1 [CHS-828]	> 20 µM	> 20 µM
O=C(NOCC1CC1)c1ccc(F)c(F)c1Nc1ccc(I)cc1Cl [CI-1040]	> 20 µM	> 20 µM
Oc1cc(O)c2c(c1)O[C@H](c1ccc(O)c(O)c1)[C@@H](O)C2 [CIANIDANOL]	> 20 µM	> 20 µM
CN(C)CCCN1c2ccccc2CCc2ccc(C#N)cc21 [CIANOPRAMINE]	> 20 µM	> 20 µM
Cc1cc(C2CCCCC2)n(O)c(=O)c1 [CICLOPIROX]	> 20 µM	> 20 µM
CC(C(=O)O)c1ccc2c(c1)Cc1ccccc1-2 (configuration not stated) [CICLOPROFEN]	> 20 µM	> 20 µM
CC1(COc2ccc(CC3SC(=O)NC3=O)cc2)CCCCC1 (configuration not stated) [CIGLITAZONE]	> 20 µM	> 20 µM
CC1(C)C[C@@H]1C(=O)N/C(=C\CCCCSC[C@H](N)C(=O)O)C(=O)O [CILASTATIN]	> 20 µM	> 20 µM
CCOC(=O)[C@H](CCc1ccccc1)N[C@H]1CCCN2CCC[C@@H](C(=O)O)N2C1=O [CILAZAPRIL]	> 20 µM	> 20 µM
COCCOC(=O)C1=C(C)NC(C)=C(C(=O)OC/C=C/c2ccccc2)C1c1cccc([N+](=O)[O-])c1 (configuration not stated) [CILNIDIPINE]	> 20 µM	> 20 µM

SMILES	IC50	IC50 (read-out: pIC50 (converted))
COc1ccc([C@]2(C#N)CC[C@@H](C(=O)O)CC2)cc1OC1CCCC1 [CILOMILAST]	> 20 µM	> 20 µM
CN(C(=O)CCCOc1ccc2[nH]c(=O)ccc2c1)C1CCCCC1 [CILOSTAMIDE]	> 20 µM	> 20 µM
O=C1CCc2cc(OCCCCc3nnnn3C3CCCCC3)ccc2N1 [CILOSTAZOL]	> 20 µM	> 20 µM
CN/C(=N\CCSCc1nc[nH]c1C)NC#N [CIMETIDINE]	> 20 µM	> 20 µM
CN(C)CCCSc1ccccc1NC(=O)/C=C/c1ccccc1 [CINANSERIN]	> 20 µM	> 20 µM
C=C[C@H]1CN2CC[C@H]1C[C@H]2[C@H](O)c1ccnc2ccccc12 [CINCHONIDINE]	> 20 µM	> 20 µM
O=C(O)c1cc(-c2ccccc2)nc2ccccc12 [CINCHOPHEN]	> 20 µM	> 20 µM
COc1cc(/C=C/C(=O)N2CCN(CC(=O)N3CCCC3)CC2)cc(OC)c1OC [CINEPAZIDE]	> 20 µM	> 20 µM
CCOc1cc(N)c([N+](=O)[O-])cc1C(=O)NC1CCN(CC2CC=CCC2)CC1 (configuration not stated) [CINITAPRIDE]	> 20 µM	> 20 µM
CCn1nc(C(=O)O)c(=O)c2cc3c(cc21)OCO3 [CINOXACIN]	> 20 µM	> 20 µM
CCNC(=O)/C=C/c1cccc(Br)c1 [CINROMIDE]	> 20 µM	> 20 µM
CCCCCC1C(=O)N2C=C(c3ccccc3)c3ccccc3N2C1=O (configuration not stated) [CINTAZONE]	> 20 µM	> 20 µM
CC(C)(Oc1ccc(C2CC2(Cl)Cl)cc1)C(=O)O (configuration not stated) [CIPROFIBRATE]	> 20 µM	> 20 µM
CN(C)[C@@H](c1cccc(O)c1)[C@H]1CCCC[C@H]1O [CIRAMADOL]	> 20 µM	> 20 µM
COc1cc(N)c(Cl)cc1C(=O)NC1CCN(CCCOc2ccc(F)cc2)CC1OC (configuration not stated) [CISAPRIDE]	> 20 µM	> 20 µM
CN(C)CCCC1(c2ccc(F)cc2)OCc2cc(C#N)ccc21 (configuration not stated) [CITALOPRAM]	> 20 µM	> 20 µM
NC(=O)C1c2ccccc2C=Cc2ccccc21 [CITENAMIDE]	> 20 µM	> 20 µM
N#Cc1ccc(/C=N/NC(N)=S)s1 [CITENAZONE]	> 20 µM	> 20 µM
CC(=O)NC1CCSC1=O (configuration not stated) [CITIOLONE]	> 20 µM	> 20 µM
COc1cc(OC)c2ccc(=O)oc2c1 [CITROPTEN]	> 20 µM	> 20 µM
CN(C)CCOC(c1ccccc1)c1ccnn1C (configuration not stated) [CIZOLIRTINE]	> 20 µM	> 20 µM
CCCCCCCCCCC(C)(C)C(=O)Nc1c(OC)cc(OC)cc1OC [CL-976]	> 20 µM	> 20 µM
CC[C@H]1OC(=O)[C@H](C)[C@@H](O[C@H]2C[C@@](C)(OC)[C@@H](O)[C@H](C)O2)[C@H](C)[C@@H](O[C@@H]2O[C@H](C)C[C@H](N(C)C)[C@H]2O)[C@](C)(OC)C[C@@H](C)C(=O)[C@H](C)[C@@H](O)[C@]1(C)O [CLARITHROMYCIN]	> 20 µM	> 20 µM
O=C(O)[C@H]1/C(=C/CO)O[C@@H]2CC(=O)N21 [CLAVULANIC ACID]	> 20 µM	> 20 µM
